Measured values from patent US9290440B2, “Bicyclic compound” (TOA EIYO LTD., priority 2012, dated 2016).
Like-named read-outs stand apart in the source and are kept apart here.

Key:
[1] = target: T1, human sGC α subunit and β subunit (Homo sapiens, UniProt Q02153); test: Maximum effect of sGC activating function (Ca2+ fluorescence in CHO-K1 cells expressing human sGC and mouse CNGA2); assay type: cell-based; conditions: increase ratio of sGC activity vs control solution at 10 μmol/L test compound
T1 construct: expressed in transfected cells
T1 sequence (Q02153 1-619): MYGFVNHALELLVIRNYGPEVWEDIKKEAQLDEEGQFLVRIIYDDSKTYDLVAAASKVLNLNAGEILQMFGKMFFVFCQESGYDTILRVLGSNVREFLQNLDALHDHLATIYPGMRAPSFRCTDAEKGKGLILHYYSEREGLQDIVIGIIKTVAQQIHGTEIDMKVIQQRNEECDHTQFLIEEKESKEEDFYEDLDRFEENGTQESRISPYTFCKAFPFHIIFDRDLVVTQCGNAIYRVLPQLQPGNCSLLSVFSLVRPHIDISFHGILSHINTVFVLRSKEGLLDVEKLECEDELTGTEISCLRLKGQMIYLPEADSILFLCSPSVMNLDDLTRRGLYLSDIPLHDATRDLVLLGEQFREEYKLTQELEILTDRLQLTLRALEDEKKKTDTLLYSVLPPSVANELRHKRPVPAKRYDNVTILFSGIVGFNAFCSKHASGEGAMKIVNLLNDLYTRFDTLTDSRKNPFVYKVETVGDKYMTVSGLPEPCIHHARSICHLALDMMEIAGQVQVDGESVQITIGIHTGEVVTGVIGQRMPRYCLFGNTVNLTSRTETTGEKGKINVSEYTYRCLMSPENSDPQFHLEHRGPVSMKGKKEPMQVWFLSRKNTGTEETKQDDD
T1 sequence (Q02108 1-690 partner): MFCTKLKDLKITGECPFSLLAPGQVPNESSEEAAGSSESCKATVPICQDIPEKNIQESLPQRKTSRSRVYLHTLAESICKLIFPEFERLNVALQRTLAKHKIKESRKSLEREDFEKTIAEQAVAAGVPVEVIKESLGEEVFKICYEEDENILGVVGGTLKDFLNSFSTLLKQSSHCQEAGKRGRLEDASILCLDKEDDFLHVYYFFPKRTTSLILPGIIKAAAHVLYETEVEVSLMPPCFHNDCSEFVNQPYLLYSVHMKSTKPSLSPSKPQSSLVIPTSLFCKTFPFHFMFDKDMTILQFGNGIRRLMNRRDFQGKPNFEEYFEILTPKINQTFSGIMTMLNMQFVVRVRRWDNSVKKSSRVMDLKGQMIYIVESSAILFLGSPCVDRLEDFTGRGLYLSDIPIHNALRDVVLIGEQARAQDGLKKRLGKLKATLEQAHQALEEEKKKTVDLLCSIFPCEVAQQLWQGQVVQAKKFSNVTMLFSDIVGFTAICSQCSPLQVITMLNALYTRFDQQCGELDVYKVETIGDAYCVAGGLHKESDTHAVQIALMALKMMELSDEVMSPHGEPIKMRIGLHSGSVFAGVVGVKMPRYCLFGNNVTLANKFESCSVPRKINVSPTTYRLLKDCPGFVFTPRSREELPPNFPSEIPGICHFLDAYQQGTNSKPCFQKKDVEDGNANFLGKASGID
Description: (§1) For the assay, Chinese hamster ovary cells (CHO-K1 cells) in which human sGC α subunit and β subunit and mouse cyclic nucleotide gated channel (CNGA2) are stably expressed were used.
(§2) CHO-K1 cells in which human sGC and mouse CNGA2 are stably expressed were cultured at 37° C. in F-12 medium containing 10% (v/v) fetal bovine serum (FBS), penicillin (100 U/mL), streptomycin (100 μg/mL), G418 (250 μg/mL), and zeocin (250 μg/mL). The cells were suspended in the culture medium and seeded onto a 96-well plate, and then cultured at 37° C. for 24 hours. After washing with assay buffer 1 (140 mmol/L sodium chloride, 5 mmol/L potassium chloride, 0.5 mmol/L magnesium chloride, 0.01 mmol/L calcium chloride, 10 mmol/L glucose, 0.4 mmol/L magnesium sulfate, 10 mmol/L 4-(2-hydroxyethyl)piperazin-1-ylethane sulfonic acid, and 125 μmol/L sulfinpyrazone, pH 7.4), an indicator solution in which FURA2-AM as a fluorescent Ca^2+ indicator is dissolved at concentration of 5 μmol/L in assay buffer 1 was added followed by culture for 60 minutes at 37° C. The indicator solution was removed. After washing with assay buffer 1, the test compound solution was added and incubated for 10 minutes at room temperature. The plate was placed in a fluorometer (Flex Station II, Molecular Devices, LLC), and then the intracellular calcium concentration was measured as fluorescence intensity ratio which is obtained from each excitation wavelength (excitation wavelength of 340 nm and 380 nm and detection wavelength of 510 nm).
(§3) The test compound solution was prepared by dissolving each of the test compounds in DMSO to a concentration of 10 mmol/L, and then adding the assay buffer 2 (140 mmol/L sodium chloride, 5 mmol/L potassium chloride, 0.5 mmol/L magnesium chloride, 1 mmol/L calcium chloride, 10 mmol/L glucose, 0.4 mmol/L magnesium sulfate, 10 mmol/L 4-(2-hydroxyethyl)piperazin-1-ylethane sulfonic acid, 125 μmol/L sulfinpyrazone, 100 μmol/L isobutylmethylxanthine, 10 μmol/L 1H-[1,2,4]-oxadiazole[4,3-a]quinoxalin-1-one (hereinbelow, ODQ), pH 7.4) for dilution to have test concentration of 10 μmol/L. For the evaluation of a case in which ODQ is not contained, the same evaluation was performed except that ODQ is excluded from assay buffer 2. As a control solution, a DMSO solution was used instead of the test compound solution.
(§4) The activity of the test compound corresponds to the increase ratio (%) of the sGC activity at the time of adding the test compound solution with respect to the sGC activity at the time of adding the control solution, and it was calculated by dividing the fluorescence intensity ratio at the time of adding the test compound by the fluorescence intensity ratio of the control solution and subtracting the sGC activity (100%) at the time of adding the control solution.
In this assay, intracellular cGMP concentration increases as sGC is activated, and according to opening of CNGA2 following the increase of cGMP, intracellular Ca^2+ concentration increases. Thus, SGC activation can be measured by following the change in intracellular Ca^2+ concentration. […] Thus, in the absence of ODQ, the maximum sGC activating function including the heme-dependent activation can be evaluated while the heme-independent sGC activating function can be evaluated in the presence of ODQ.

[2] = target: T1, human sGC α subunit and β subunit; test: Heme-independent property of sGC activating function (EC50 ratio, CHO-K1 cells expressing human sGC and mouse CNGA2); assay type: cell-based; conditions: EC50 in the absence of ODQ divided by EC50 in the presence of ODQ, sGC activation
Description: as §1, §2, §3, §4
For the representative compounds, activity was measured in the same manner as Test Example 1 at each test concentration of 0.0001, 0.001, 0.003, 0.01, 0.03, 0.1, 1, and 10 μmol/L.
The degree of heme-independent property of each test compound with regard to sGC activating function was obtained by dividing, for EC50 measured from the concentration-activation curve which has been established from the above, EC50 in the absence of ODQ by EC50 in the presence of ODQ. Specifically, the smaller the EC50 ratio is, the less the change in sGC activating function is, the change in the function being caused by the presence or absence of ODQ, and thus it is found to be more heme-independent.
EC50 value was obtained by measuring the activity of each compound to be tested at concentrations of 0.0001, 0.001, 0.003, 0.01, 0.03, 0.1, 1, and 10 μmol/L and performing the calculation using four-parameter logistics model using Assay Explorer (Accelrys).

[3] = ODQ not contained, read-out: Emax (%) ODQ− (Heme-dependent)
[4] = with 10 μmol/L ODQ, read-out: Emax (%) ODQ+ (Heme-independent)

O=C(O)CCCCN(CCc1ccccc1OCc1ccc(C#CC2CCCCC2)cc1)C1CCCc2cc(C(=O)O)ccc21 (stereo not drawn) [Example 22, 5-{N-(4-Carboxybutyl)-N-[2-[2-(4-cyclohexylethynylbenzyloxy)phenyl]ethyl]amino}-5,6,7,8-tetrahydronaphthalene-2-carboxylic acid] was tested. Which Emax at 10 µM [1, 3] did it give?
Its Emax at 10 µM is 108%.

And the Emax at 10 µM [1, 4]?
The Emax at 10 µM was 100%.

What does the source list for C#Cc1ccc(COc2ccccc2CCN(CCCCC(=O)O)C2CCCc3cc(C(=O)O)ccc32)cc1 (stereo not drawn) [Example 19, 5-{N-(4-Carboxybutyl)-N-[2-[2-(4-ethynylbenzyloxy)phenyl]ethyl]amino}-5,6,7,8-tetrahydronaphthalene-2-carboxylic acid]?
Emax at 10 µM [1, 3]: 88.7%; Emax at 10 µM [1, 4]: 88%

Which Emax at 10 µM [1, 3] does the source give for O=C(O)CCCCN(CCc1ccccc1OCc1ccc(CSc2ccccc2)cc1)C1CCCc2cc(C(=O)O)ccc21 (stereo not drawn) [Example 17, 5-{N-(4-Carboxybutyl)-N-[2-[2-(4-phenylsulfanylmethylbenzyloxy)phenyl]ethyl]amino}-5,6,7,8-tetrahydronaphthalene-2-carboxylic acid] here?
Its Emax at 10 µM is 115%.

And the Emax at 10 µM [1, 4]?
Its Emax at 10 µM is 91.8%.

O=C(O)CCCCN(CCc1ccccc1OCc1ccc(CCc2ccccc2)cc1)C1CCSc2cc(C(=O)O)ccc21 (stereo not drawn) [Example 5, 4-{N-(4-Carboxybutyl)-N-[2-[2-[4-(2-phenylethyl)benzyloxy]phenyl]ethyl]amino}thiochromane-7-carboxylic acid] was tested. Which Emax at 10 µM [1, 3] did it give?
The Emax at 10 µM was 84.5%.

What about the Emax at 10 µM [1, 4] of the same compound?
The Emax at 10 µM was 86.9%.

How did the Emax at 10 µM [1, 3] turn out when O=C(O)CCCCN(CCc1ccccc1OC[C@H]1CC[C@@H](CCc2ccccc2)CC1)C1CCCc2cc(C(=O)O)ccc21 (stereo partly drawn) [Example 27, 5-{N-(4-Carboxybutyl)-N-[2-[2-[cis-4-(2-phenylethyl)cyclohexylmethoxy]phenyl]ethyl]amino}-5,6,7,8-tetrahydronaphthalene-2-carboxylic acid] was run?
The Emax at 10 µM was 113%.

What about the Emax at 10 µM [1, 4] of the same compound?
Its Emax at 10 µM is 96.6%.

What about the “EC50 Ratio (ODQ−/ODQ+)” value [2] of the same compound?
Its value is 1.84.

Which results are given for O=C(O)CCCCN(CCc1ccccc1OCc1ccc(CCC2CCCCC2)cc1)C1CCCc2cc(C(=O)O)ccc21 (stereo not drawn) [Example 24, 5-{N-(4-Carboxybutyl)-N-[2-[2-[4-(2-cyclohexylethyl)benzyloxy]phenyl]ethyl]amino}-5,6,7,8-tetrahydronaphthalene-2-carboxylic acid]?
Emax at 10 µM [1, 3]: 135%; Emax at 10 µM [1, 4]: 114%

What does the source list for O=C(O)CCCCN(CCc1ccccc1OCc1ccc(CCc2ccccc2)cc1)C1CCCc2nc(C(=O)O)ccc21 (stereo not drawn) [Example 6, 5-{N-(4-Carboxybutyl)-N-[2-[2-[4-(2-phenylethyl)benzyloxy]phenyl]ethyl]amino}-5,6,7,8-tetrahydroquinoline-2-carboxylic acid]?
Emax at 10 µM [1, 3]: 126%; Emax at 10 µM [1, 4]: 99.9%; EC50 Ratio (ODQ−/ODQ+) [2]: 0.87

Which results are given for O=C(O)CCCCN(CCc1ccccc1OCc1ccc(CCc2ccccc2)cc1)C1COc2cc(C(=O)O)ccc21 (stereo not drawn) [Example 7, 3-{N-(4-Carboxybutyl)-N-[2-[2-[4-(2-phenylethyl)benzyloxy]phenyl]ethyl]amino}-2,3-dihydrobenzofuran-6-carboxylic acid]?
Emax at 10 µM [1, 3]: 110%; Emax at 10 µM [1, 4]: 108%; EC50 Ratio (ODQ−/ODQ+) [2]: 2.34

For O=C(O)CCCCN(CCc1ccccc1OCc1ccc(CCc2ccccc2)cc1)C1CCCCc2cc(C(=O)O)ccc21 (stereo not drawn) [Example 3, 5-{N-(4-Carboxybutyl)-N-[2-[2-[4-(2-phenylethyl)benzyloxy]phenyl]ethyl]amino}-6,7,8,9-tetrahydro-5H-benzocycloheptene-2-carboxylic acid], which Emax at 10 µM [1, 3] is on record?
Its Emax at 10 µM is 102%.

And the Emax at 10 µM [1, 4]?
The Emax at 10 µM was 111%.

What about the “EC50 Ratio (ODQ−/ODQ+)” value [2] of the same compound?
Its value is 2.54.

With CC(C)(C)c1cccc(COc2ccccc2CCN(CCCCC(=O)O)C2CCCc3cc(C(=O)O)ccc32)c1 (stereo not drawn) [Example 41, 5-{N-[2-[2-(3-tert-Butylbenzyloxy)phenyl]ethyl]-N-(4-carboxybutyl)amino}-5,6,7,8-tetrahydronaphthalene-2-carboxylic acid] as the compound, how does the Emax at 10 µM [1, 3] read?
Its Emax at 10 µM is 109%.

And the Emax at 10 µM [1, 4]?
The Emax at 10 µM was 140%.

O=C(O)CCCCN(CCc1ccccc1OCc1ccc(COc2ccccc2)cc1)C1CCCc2cc(C(=O)O)ccc21 (stereo not drawn) [Example 16, 5-{N-(4-Carboxybutyl)-N-[2-[2-(4-phenoxymethylbenzyloxy)phenyl]ethyl]amino}-5,6,7,8-tetrahydronaphthalene-2-carboxylic acid] was tested. Which Emax at 10 µM [1, 3] did it give?
Its Emax at 10 µM is 116%.

What about the Emax at 10 µM [1, 4] of the same compound?
The Emax at 10 µM was 97.5%.

For O=C(O)CCCCN(CCc1ccccc1OCc1ccccc1Cl)C1CCCc2cc(C(=O)O)ccc21 (stereo not drawn) [Example 13, 5-{N-(4-Carboxybutyl)-N-[2-[2-(2-chlorobenzyloxyl)phenyl]ethyl]amino}-5,6,7,8-tetrahydronaphthalene-2-carboxylic acid], which Emax at 10 µM [1, 3] is on record?
The Emax at 10 µM was 64.2%.

What about the Emax at 10 µM [1, 4] of the same compound?
The Emax at 10 µM was 87.2%.

With O=C(O)CCCCN(CCc1ccccc1OC[C@H]1CC[C@H](CCc2ccccc2)CC1)C1CCCc2cc(C(=O)O)ccc21 (stereo partly drawn) [Example 26, 5-{N-(4-Carboxybutyl)-N-[2-[2-[trans-4-(2-phenylethyl)cyclohexylmethoxy]phenyl]ethyl]amino}-5,6,7,8-tetrahydronaphthalene-2-carboxylic acid] as the compound, how does the Emax at 10 µM [1, 3] read?
The Emax at 10 µM was 119%.

What about the Emax at 10 µM [1, 4] of the same compound?
The Emax at 10 µM was 86.9%.
